Results reported in patent publication US8785457B2 (Cellzome Limited, priority 2009, dated 2014).
Read-outs that look alike come from different tables or passages of the source.

Assays:
mTOR = target: T1, mTOR (Homo sapiens, UniProt P42345); assay: mTOR kinobeads assay (competitive binding in Jurkat cell lysate, immunodetection)
T1 construct: endogenous in cells; host or cells: Jurkat, clone E6-1 (ATCC TIB-152) cell lysate
Outline: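 IC50 derived from dose-response curves of mTOR captured on immobilized phenylmorpholin-chromen beads, detected by antibody dot blot with infrared fluorescence.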

PI3K delta (PI3 Kd) = target: T2, PI3K delta (PI3 Kd) (Homo sapiens, UniProt O00329); assay: kinobeads assay, PI3K delta; format: binding
T2 construct: endogenous in cells; host or cells: Jurkat, clone E6-1 (ATCC TIB-152) cell lysate
Outline: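 Competitive binding in Jurkat cell lysate (5 mg/mL protein) against beads carrying an immobilized phenylmorpholin-chromen ligand, in DP buffer pH 7.4 with NP40, DTT and NaF. Bead-bound kinases were eluted and quantified by antibody dot blot with infrared detection, and IC50 was taken from dose-response curves of a 1:3 dilution series.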

[1] = kinobeads assay, Table 4, read-out: Inhibition values (IC50) mTor
[2] = kinobeads assay, Table 6, read-out: Inhibition values (IC50) mTOR
[3] = kinobeads assay, Table 4, read-out: Inhibition values (IC50) PI3Kd
[4] = kinobeads assay, Table 6, read-out: Inhibition values (IC50) PI3Kd
[5] = Further Kinobeads Data, read-out: mTor
[6] = Further Kinobeads Data, read-out: PI3Kd

T2 sequence (O00329 whole entry): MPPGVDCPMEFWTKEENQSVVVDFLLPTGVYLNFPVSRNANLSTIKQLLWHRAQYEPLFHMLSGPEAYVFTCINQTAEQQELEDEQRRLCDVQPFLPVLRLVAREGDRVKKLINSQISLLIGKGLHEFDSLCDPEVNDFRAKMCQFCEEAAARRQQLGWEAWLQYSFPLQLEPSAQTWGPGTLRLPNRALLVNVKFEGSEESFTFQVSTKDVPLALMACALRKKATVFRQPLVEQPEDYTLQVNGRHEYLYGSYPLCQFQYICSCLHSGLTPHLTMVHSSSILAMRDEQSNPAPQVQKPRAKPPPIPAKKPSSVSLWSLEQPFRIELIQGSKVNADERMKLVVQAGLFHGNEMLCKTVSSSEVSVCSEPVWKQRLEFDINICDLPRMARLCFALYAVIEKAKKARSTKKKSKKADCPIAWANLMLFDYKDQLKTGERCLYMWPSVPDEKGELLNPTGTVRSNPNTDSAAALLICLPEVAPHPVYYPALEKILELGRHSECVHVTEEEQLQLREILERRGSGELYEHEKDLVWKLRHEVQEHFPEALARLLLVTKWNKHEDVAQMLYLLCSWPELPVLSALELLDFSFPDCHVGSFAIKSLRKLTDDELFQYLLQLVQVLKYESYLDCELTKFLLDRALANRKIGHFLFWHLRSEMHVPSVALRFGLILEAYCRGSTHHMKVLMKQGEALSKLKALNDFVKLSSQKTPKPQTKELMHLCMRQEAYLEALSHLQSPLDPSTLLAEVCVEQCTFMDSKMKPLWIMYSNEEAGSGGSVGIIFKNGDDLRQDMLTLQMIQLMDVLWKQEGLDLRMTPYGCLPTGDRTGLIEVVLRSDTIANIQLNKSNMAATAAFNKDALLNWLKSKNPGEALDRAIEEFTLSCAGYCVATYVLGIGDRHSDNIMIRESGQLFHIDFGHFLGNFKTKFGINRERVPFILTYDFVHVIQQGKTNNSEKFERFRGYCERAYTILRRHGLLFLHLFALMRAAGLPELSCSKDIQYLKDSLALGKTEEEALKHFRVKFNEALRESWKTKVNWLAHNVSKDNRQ
T2 sequence (P27986 whole entry partner): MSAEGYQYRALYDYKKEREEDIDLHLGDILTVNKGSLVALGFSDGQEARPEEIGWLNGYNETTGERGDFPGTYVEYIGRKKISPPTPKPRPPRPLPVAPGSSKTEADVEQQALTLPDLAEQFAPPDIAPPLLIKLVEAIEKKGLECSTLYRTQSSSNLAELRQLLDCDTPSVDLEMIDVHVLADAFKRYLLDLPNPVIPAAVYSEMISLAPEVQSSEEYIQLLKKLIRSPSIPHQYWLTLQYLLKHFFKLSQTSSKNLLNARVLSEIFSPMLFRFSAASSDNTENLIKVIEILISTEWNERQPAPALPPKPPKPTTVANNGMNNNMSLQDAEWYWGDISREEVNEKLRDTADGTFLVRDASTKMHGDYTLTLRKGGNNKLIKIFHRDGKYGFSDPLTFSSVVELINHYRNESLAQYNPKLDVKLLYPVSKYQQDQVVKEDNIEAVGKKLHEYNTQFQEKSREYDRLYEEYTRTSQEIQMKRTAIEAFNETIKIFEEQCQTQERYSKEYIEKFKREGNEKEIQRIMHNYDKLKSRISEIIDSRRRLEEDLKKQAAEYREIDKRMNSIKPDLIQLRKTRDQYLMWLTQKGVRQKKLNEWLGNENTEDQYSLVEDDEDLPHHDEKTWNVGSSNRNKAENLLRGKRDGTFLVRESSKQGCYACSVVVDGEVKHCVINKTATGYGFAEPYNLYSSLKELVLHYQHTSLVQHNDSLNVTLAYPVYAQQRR

Row | SMILES | IC50 (mTOR; [1]) [nM] | IC50 (mTOR; [2]) [nM] | IC50 (PI3K delta (PI3 Kd); [3]) [µM] | IC50 (PI3K delta (PI3 Kd); [4]) [µM] | IC50 (mTOR; [5]) [nM] | IC50 (PI3K delta (PI3 Kd); [6]) [µM]
1 | CCNC(=O)Nc1ccc(-c2nc3c(c(N4CCOC[C@@H]4C)n2)CN(C(=O)C(C)(C)C)C3)cc1 [Example 22, (S)-1-ethyl-3-(4-(4-(3-methylmorpholino)-6-pivaloyl-6,7-dihydro-5H-pyrrolo[3,4-d]pyrimidin-2-yl)phenyl)urea] | 100 to 1000 | 100 to 1000 | > 10 | > 10 | – | –
2 | CCNC(=O)N1Cc2nc(-c3ccc(NC(=O)NC4CC4)cc3)nc(N3CCOC[C@@H]3C)c2C1 [Example 33, (S)-2-(4-(3-cyclopropylureido)phenyl)-N-ethyl-4-(3-methylmorpholino)-5H-pyrrolo[3,4-d]pyrimidine-6(7H)-carboxamide] | < 100 | < 100 | > 10 | > 10 | – | –
3 | C[C@H]1COCCN1c1nc(-c2ccc(NC(=O)NC3CC3)cc2)nc2c1CN(CC(C)(C)C)C2 [Example 25, (S)-1-cyclopropyl-3-(4-(4-(3-methylmorpholino)-6-neopentyl-6,7-dihydro-5H-pyrrolo[3,4-d]pyrimidin-2-yl)phenyl)urea] | 100 to 1000 | 100 to 1000 | > 10 | > 10 | – | –
4 | C[C@H]1COCCN1c1nc(-c2ccc(NC(=O)Nc3ccc(F)cc3)cc2)nc2c1CN(C)C2 [Example 52, (S)-1-(4-fluorophenyl)-3-(4-(6-methyl-4-(3-methylmorpholino)-6,7-dihydro-5H-pyrrolo[3,4-d]pyrimidin-2-yl)phenyl)urea] | 100 to 1000 | 100 to 1000 | > 10 | > 10 | – | –
5 | CCNC(=O)Nc1ccc(-c2nc3c(c(N4CCOC[C@@H]4C)n2)CCN(CC)C3)cc1 [Example 27, (S)-1-ethyl-3-(4-(7-ethyl-4-(3-methylmorpholino)-5,6,7,8-tetrahydropyrido[3,4-d]pyrimidin-2-yl)phenyl)urea] | < 100 | < 100 | > 10 | > 10 | – | –
6 | CCOC(=O)N1Cc2nc(-c3ccc(NC(=O)NC4CC4)cc3F)nc(N3CCOC[C@H]3C)c2C1 [Example 179, (R)-ethyl 2-(4-(3-cyclopropylureido)-2-fluorophenyl)-4-(3-methylmorpholino)-5H-pyrrolo[3,4-d]pyrimidine-6(7H)-carboxylate] | – | – | – | – | < 100 | > 10
7 | CCNC(=O)Nc1ccc(-c2nc3c(c(N4CCOC[C@@H]4C)n2)CCNC3)c(F)c1 [Example 164, (S)-1-ethyl-3-(3-fluoro-4-(4-(3-methylmorpholino)-5,6,7,8-tetrahydropyrido[3,4-d]pyrimidin-2-yl)phenyl)urea] | – | – | – | – | < 100 | > 10
